Source: ChEMBL document CHEMBL1201862, “PubChem BioAssay data set” (2004)
Activity calls are given as the source filed them.

What was measured:
[1] = biological target: Signal transducer and activator of transcription 1-alpha/beta (Homo sapiens, UniProt P42224); assay: STAT3 inhibitors, late-stage profile, late-stage follow-up, cell-based, STAT1 panel, qPCR, cytotoxicity, panel member STAT1 Inhibition (AID 2078)
[2] = biological target: Signal transducer and activator of transcription 3 (Homo sapiens, UniProt P40763); assay: STAT3 inhibitors, late-stage profile, late-stage follow-up, cell-based, STAT1 panel, qPCR, cytotoxicity, panel member STAT3 Inhibition (AID 2078)
Signal transducer and activator of transcription 3, sequence (P40763 whole entry): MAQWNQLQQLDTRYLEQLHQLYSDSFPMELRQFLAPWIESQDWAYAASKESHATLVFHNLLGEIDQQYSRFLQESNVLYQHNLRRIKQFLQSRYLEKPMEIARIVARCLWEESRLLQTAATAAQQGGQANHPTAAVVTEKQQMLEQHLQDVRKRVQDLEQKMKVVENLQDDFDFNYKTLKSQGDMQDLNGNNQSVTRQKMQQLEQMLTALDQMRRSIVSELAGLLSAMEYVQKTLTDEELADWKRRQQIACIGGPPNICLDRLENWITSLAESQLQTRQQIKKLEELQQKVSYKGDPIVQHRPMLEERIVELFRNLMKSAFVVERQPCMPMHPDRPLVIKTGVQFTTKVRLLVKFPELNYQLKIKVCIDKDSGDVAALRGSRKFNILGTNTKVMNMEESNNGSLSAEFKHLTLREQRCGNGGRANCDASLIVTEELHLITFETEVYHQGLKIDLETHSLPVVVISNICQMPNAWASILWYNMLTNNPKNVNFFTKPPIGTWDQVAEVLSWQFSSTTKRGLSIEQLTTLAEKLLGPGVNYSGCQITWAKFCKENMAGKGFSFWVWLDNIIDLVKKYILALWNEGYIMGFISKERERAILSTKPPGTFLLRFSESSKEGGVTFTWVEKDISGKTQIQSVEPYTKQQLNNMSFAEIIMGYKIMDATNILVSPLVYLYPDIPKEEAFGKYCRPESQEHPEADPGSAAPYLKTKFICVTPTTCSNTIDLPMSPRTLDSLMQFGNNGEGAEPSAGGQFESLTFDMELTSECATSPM

[3] = biological target: Tyrosine-protein phosphatase non-receptor type 12 (Homo sapiens, UniProt Q05209); assay: SAR Selectivity Analysis of small molecule inhibitors of PEST using pCAP in a fluorescence assay. [Related pubchem assays (depositor defined):AID1779, AID1784, AID2135]; format: functional
Tyrosine-protein phosphatase non-receptor type 12, sequence (Q05209 whole entry): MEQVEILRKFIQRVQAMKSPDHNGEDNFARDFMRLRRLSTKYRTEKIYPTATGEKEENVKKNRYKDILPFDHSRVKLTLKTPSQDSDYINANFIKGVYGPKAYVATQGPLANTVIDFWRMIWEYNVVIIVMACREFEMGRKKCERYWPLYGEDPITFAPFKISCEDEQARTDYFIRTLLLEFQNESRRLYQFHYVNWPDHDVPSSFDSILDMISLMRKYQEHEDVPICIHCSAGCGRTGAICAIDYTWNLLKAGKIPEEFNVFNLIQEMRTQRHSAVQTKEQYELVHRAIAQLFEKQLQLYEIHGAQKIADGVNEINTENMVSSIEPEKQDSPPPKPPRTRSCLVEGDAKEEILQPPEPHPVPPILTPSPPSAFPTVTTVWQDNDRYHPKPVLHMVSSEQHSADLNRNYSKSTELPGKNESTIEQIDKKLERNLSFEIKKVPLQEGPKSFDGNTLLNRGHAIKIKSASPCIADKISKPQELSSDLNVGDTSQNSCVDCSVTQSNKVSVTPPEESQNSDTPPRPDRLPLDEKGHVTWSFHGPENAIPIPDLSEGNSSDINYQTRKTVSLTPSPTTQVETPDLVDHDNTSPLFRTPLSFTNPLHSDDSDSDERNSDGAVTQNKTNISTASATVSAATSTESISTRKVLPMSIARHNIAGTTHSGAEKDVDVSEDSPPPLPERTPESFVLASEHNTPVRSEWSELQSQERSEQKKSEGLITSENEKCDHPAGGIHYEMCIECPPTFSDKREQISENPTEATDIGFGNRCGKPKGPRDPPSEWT

[4] = biological target: T1, Tyrosine-protein phosphatase non-receptor type 7 (Homo sapiens, UniProt P35236); assay: redox-dependent HePTP inhibition, mechanism study, biochemical, fluorescence (AID 2068); format: functional
T1 sequence (P35236 whole entry): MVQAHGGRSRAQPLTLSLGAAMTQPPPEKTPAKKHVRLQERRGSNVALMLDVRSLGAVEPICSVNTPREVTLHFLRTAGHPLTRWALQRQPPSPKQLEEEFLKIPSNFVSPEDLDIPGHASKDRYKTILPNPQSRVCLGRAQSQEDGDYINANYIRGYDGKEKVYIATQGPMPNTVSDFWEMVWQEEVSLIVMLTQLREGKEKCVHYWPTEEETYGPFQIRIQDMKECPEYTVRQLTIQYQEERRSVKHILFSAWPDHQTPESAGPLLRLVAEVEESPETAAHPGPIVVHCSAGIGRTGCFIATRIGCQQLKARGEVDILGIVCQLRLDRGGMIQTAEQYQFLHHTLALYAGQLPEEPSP

[5] = biological target: T1, Tyrosine-protein phosphatase non-receptor type 7; assay: HePTP (PTPN7) phosphatase inhibitor potency, SAR follow-up, biochemical, set 2 (AID 449736); format: functional
[6] = biological target: T2, Dual specificity protein phosphatase 3 (Homo sapiens, UniProt P51452); assay: SAR VHR1 absorbance Assay for In Vitro dose response studies. [Related pubchem assays (depositor defined):AID1654, AID1661, AID1878, AID1992, AID2004]
T2 sequence (P51452 whole entry): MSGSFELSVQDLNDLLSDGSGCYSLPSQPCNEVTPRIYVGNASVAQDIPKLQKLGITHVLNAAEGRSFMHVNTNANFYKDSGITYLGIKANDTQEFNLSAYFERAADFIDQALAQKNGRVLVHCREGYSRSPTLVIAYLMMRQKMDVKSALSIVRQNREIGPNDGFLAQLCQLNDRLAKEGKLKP

[7] = biological target: T3, Tyrosine-protein phosphatase non-receptor type 22 (Homo sapiens, UniProt Q9Y2R2); assay: LYP (PTPN22) phosphatase inhibitor potency, SAR follow-up, biochemical, pCAP fluorogenic substrate, fluorescence, set 3 (AID 449727); format: functional
T3 sequence (Q9Y2R2 whole entry): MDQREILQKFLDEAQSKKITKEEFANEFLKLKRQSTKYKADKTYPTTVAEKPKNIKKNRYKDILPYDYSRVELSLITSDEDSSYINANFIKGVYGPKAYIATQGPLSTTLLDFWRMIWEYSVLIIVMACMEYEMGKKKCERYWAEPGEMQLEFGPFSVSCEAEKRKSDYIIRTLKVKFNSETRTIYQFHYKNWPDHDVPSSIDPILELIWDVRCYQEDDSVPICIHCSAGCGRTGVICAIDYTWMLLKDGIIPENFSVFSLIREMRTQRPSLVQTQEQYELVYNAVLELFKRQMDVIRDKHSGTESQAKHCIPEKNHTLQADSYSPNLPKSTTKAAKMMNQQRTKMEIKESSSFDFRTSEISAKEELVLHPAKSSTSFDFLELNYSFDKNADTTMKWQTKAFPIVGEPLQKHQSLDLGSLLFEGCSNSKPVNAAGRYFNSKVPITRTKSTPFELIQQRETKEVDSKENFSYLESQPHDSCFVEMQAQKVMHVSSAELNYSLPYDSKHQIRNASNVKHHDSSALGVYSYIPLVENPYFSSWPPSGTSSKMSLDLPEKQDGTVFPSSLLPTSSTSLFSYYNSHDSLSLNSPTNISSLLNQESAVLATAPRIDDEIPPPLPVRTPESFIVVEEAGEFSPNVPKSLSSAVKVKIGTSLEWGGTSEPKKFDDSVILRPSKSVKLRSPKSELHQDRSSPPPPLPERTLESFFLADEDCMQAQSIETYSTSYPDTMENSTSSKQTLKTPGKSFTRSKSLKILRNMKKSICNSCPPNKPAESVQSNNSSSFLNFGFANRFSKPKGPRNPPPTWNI

[8] = biological target: T3, Tyrosine-protein phosphatase non-receptor type 22; assay: SAR LYP1 Fluorescent Assay using OMFP substrate for In Vitro dose response studies - Set 3. [Related pubchem assays (depositor defined):AID1779, AID1784, AID2140, AID2686]; format: functional
[9] = biological target: T4, Dual specificity protein phosphatase 6 (Rattus norvegicus, UniProt Q64346); format: functional;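 further: confirmatory in vitro dose-response testing of MKP-3 inhibition; recombinant His-tagged MKP-3 made in E. coli BL21 with OMFP substrate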
T4 sequence (Q64346 whole entry): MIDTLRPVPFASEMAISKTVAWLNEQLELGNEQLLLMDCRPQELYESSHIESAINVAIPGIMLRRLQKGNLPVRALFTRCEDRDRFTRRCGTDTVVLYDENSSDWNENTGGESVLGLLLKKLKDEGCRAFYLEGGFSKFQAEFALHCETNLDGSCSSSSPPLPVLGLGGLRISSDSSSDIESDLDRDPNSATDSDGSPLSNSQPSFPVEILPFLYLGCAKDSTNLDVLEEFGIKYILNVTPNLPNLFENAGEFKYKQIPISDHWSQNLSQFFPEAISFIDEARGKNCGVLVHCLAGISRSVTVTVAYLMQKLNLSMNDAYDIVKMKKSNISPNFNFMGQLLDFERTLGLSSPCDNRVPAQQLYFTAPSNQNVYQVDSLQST

[10] = biological target: T2, Dual specificity protein phosphatase 3; assay: SAR VHR1 Fluorescent Assay for In Vitro dose response studies. [Related pubchem assays (depositor defined):AID1654, AID1661, AID1878, AID1992, AID2004, AID2070, AID2085]; format: functional
[11] = inhibitors of firefly luciferase expression or activity, dose response, H4 neuroglioma cells, luminescence (AID 1990); format: functional, cell-based
[12] = biological target: T3, Tyrosine-protein phosphatase non-receptor type 22; format: functional
[13] = biological target: T1, Tyrosine-protein phosphatase non-receptor type 7; format: functional
[14] = biological target: Induced myeloid leukemia cell differentiation protein Mcl-1 (Homo sapiens, UniProt Q07820); assay: MCL1-BIM BH3 interaction inhibitors, dose response, biochemical, fluorescence polarization, BIM-BH3 peptide, 1536-well (AID 2217)
Induced myeloid leukemia cell differentiation protein Mcl-1, sequence (Q07820 whole entry): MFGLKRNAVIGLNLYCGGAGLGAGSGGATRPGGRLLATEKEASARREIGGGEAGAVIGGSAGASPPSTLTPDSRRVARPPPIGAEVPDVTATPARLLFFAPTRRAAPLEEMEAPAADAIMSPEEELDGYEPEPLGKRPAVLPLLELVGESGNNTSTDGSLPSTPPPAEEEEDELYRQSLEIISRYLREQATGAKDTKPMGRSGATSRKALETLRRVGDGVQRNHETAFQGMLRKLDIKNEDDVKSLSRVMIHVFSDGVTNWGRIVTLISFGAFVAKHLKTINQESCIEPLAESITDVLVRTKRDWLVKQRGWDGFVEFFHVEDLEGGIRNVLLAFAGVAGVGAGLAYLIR

[15] = biological target: T2, Dual specificity protein phosphatase 3; assay: VHR1 phosphatase inhibitors, biochemical (AID 1878)
Bcl-2-like protein 1 = Bcl-2-like protein 1 (Homo sapiens, UniProt Q07817); assay: BCL-XL inhibitors, dose response, selectivity assay for MCL1 inhibitor project, biochemical, fluorescence polarization, 1536-well (AID 2218)
Bcl-2-like protein 1, sequence (Q07817 whole entry): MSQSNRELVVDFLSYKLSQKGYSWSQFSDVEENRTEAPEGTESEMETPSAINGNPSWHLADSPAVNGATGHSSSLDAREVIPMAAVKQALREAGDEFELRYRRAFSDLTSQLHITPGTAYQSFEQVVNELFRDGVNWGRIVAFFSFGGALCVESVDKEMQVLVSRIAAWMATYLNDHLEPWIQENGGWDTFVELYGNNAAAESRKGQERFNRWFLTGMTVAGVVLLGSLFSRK

[16] = inhibitors of SNCA 5'UTR-driven reporter translation, confirmation, H4 neuroglioma cells, luminescence (AID 1988); format: functional, cell-based
[17] = biological target: T2, Dual specificity protein phosphatase 3; assay: VHR1 phosphatase inhibitors, primary screen, biochemical, absorbance, uHTS (AID 1654)
[18] = biological target: T3, Tyrosine-protein phosphatase non-receptor type 22; format: functional; remark: listed apart in the source
[19] = Luminescence Cell-Based Dose Response HTS to Identify Inhibitors of 5'UTR Stem-Loop Driven Prion Protein mRNA Translation in H4 Neuroglioblastoma Cells. [Related pubchem assays: 1827 (Project Summary), 1813 (Primary HTS)]; format: functional
[20] = biological target: T4, Dual specificity protein phosphatase 6; assay: MKP-3 phosphatase inhibitors, primary screen, biochemical, rat enzyme, in vitro (AID 425)
INS1 = assay: beta cell apoptosis inhibitors, cytokine rescue, dose response, luminescence, retest (AID 449756); format: functional, cell-based; conditions: Rattus norvegicus;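 further: cell death triggered by IL-1 beta plus TNF-alpha plus IFN-gamma mixture; protective hits raise ATP signal compared with cytokine alone wells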

Signal transducer and activator of transcription 1-alpha/beta, sequence (P42224 whole entry): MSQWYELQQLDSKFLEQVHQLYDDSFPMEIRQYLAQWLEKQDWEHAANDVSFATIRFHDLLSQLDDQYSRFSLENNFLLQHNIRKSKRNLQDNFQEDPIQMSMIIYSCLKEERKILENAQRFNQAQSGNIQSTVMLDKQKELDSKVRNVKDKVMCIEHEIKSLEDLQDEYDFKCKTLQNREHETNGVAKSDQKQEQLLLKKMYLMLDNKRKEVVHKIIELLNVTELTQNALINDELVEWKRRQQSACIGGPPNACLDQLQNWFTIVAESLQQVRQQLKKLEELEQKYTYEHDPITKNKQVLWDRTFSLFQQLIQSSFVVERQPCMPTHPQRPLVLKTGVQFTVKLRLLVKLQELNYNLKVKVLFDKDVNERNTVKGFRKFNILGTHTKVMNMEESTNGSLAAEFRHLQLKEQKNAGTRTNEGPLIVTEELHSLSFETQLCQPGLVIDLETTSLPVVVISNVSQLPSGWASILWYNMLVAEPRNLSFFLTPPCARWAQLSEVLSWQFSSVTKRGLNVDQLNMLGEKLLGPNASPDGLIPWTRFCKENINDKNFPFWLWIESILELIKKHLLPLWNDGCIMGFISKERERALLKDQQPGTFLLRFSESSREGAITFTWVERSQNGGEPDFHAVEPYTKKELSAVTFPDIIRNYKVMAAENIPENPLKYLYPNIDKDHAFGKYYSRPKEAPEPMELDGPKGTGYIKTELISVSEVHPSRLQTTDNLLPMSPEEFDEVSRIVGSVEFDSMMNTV

**Q.** With `OC(c1ccccc1)C1CCN(c2ncnc3sccc23)CC1` (configuration not stated) as the compound, how does the IC50 [1] read?
**A.** > 55.7 µM (inactive)

**Q.** What about the IC50 [2] of the same compound?
**A.** 1.84 µM (active)

**Q.** Which IC50 [3] does the source give for `O=C(O)COc1ccc2ccccc2c1` here?
**A.** > 100 µM (inactive)

**Q.** What about the IC50 [4] of the same compound?
**A.** 54.7 µM (active)

**Q.** What about the IC50 [5] of the same compound?
**A.** > 100 µM (inactive)

**Q.** What about the IC50 [6] of the same compound?
**A.** > 100 µM (inactive)

**Q.** What about the IC50 [7] of the same compound?
**A.** > 100 µM (inactive)

**Q.** What about the IC50 [8] of the same compound?
**A.** > 100 µM (inactive)

**Q.** What about the IC50 [9] of the same compound?
**A.** > 99 µM (inactive)

**Q.** And the IC50 [10]?
**A.** > 99 µM (inactive)

**Q.** With `COc1cccc(/C=N/NC(=O)c2cc3cc([N+](=O)[O-])ccc3s2)c1O` as the compound, how does the EC50 [11] read?
**A.** 7.1 µM (active)

**Q.** And the IC50 [12]?
**A.** 13.1 µM (active)

**Q.** And the IC50 [13]?
**A.** 14.9 µM (active)

**Q.** What about the IC50 [14] of the same compound?
**A.** 2.02 µM (active)

**Q.** And the IC50 [15]?
**A.** 5.31 µM (active)

**Q.** And the IC50 (Bcl-2-like protein 1)?
**A.** > 109 µM (not active)

**Q.** What about the EC50 [16] of the same compound?
**A.** 7.86 µM (active)

**Q.** What about the IC50 [17] of the same compound?
**A.** 25.2 µM (active)

**Q.** What about the IC50 [18] of the same compound?
**A.** 15.7 µM (active)

**Q.** And the EC50 [19]?
**A.** 9.8 µM (active)

**Q.** And the IC50 [20]?
**A.** 116 µM (not active)

**Q.** What about the AC50 (INS1) of the same compound?
**A.** 3.15 µM (active)
